# Data: article PMC6695747, “Primaquine and Chloroquine Fumardiamides as Promising Antiplasmodial Agents” (Molecules, 2019)
# Where two headings read alike, the source gives them in different places.
# Assays:
# [1] = system: P. falciparum Pf3D7 (CQ-sensitive) erythrocytic stages; test: In vitro drug sensitivity assay (HRP2-ELISA) against erythrocytic stages, strain 3D7; format: cell-based; details: Plasmodium falciparum, 72 h, read-out: IC50 Pf3D7
# Description: (§1) Antiplasmodial activity of fumardiamides 1–6 and 11–16 was tested in a drug sensitivity assay against two laboratory P. falciparum strains (3D7—CQ-sensitive, and Dd2—CQ-resistant), as previously described, using the histidine-rich protein 2 (HRP2) assay. In brief, 96-well plates were pre-coated with the tested compounds in a three-fold dilution before ring stage parasites were added in complete culture medium at a hematocrit of 1.5% and a parasitaemia of 0.05%. After three days of incubation at 37 °C, 5% CO2, and 5% oxygen, plates were frozen until analyzed by HRP2-ELISA. All compounds were evaluated in duplicate in at least two independent experiments. The IC50 was determined by analysing the nonlinear regression of log concentration-response curves using the drc-package v0.9.0 of R v2.6.1 [27].
# [2] = system: P. falciparum PfDd2 (CQ-resistant) erythrocytic stages; test: In vitro drug sensitivity assay (HRP2-ELISA) against erythrocytic stages, strain Dd2; format: cell-based; details: Plasmodium falciparum, 72 h, read-out: IC50 PfDd2
# Description: as §1
# [3] = system: P. berghei hepatic stages; test: In vitro activity against P. berghei hepatic stages (luciferase parasite load in Huh7 cells); format: cell-based; details: Plasmodium berghei, Huh-7, read-out: IC50 P. bergei
# Description: In vitro activity of the tested compounds against the liver stage of P. berghei infection was assessed as previously described. […] Next, 10 mM stock solutions of test compounds were prepared in DMSO and were serially diluted in infection medium, i.e., culture medium supplemented with gentamicin (50 μg/mL) and amphotericin B (0.8 μg/mL), in order to obtain the test concentrations.
# To assess the effect of each compound concentration in cell viability, at 46 hours post-infection (hpi), cultures were incubated with Alamar Blue (Thermo Fisher Scientific, Waltham, MA, USA), according to the manufacturer’s recommendations. Parasite load was then assessed by the bioluminescence assay (Biotium, Fremont, CA, USA), using the multi-plate reader Infinite M200 (Tecan, Männedorf, Switzerland). Nonlinear regression analysis was employed to fit the normalized results of the dose–response curves, and IC50 values were determined using GraphPad Prism 6.0 (GraphPad Software, La Jolla California USA).
# [4] = system: HEK293T (non-tumour embryonic kidney); test: Cytotoxicity MTT assay, HEK293T; format: cell-based; details: Homo sapiens, HEK-293T, read-out: IC50 HEK293T
# Description: (§2) The experiments were carried out on 2 human cell lines: MCF-7 (breast carcinoma) and HEK293T (embryonic kidney). MCF-7 and HEK293T cells were cultured as monolayers and maintained in Dulbecco’s modified Eagle medium (DMEM), supplemented with 10% fetal bovine serum (FBS), 2 mM L-glutamine, 100 U/mL penicillin, and 100 μg/mL streptomycin in a humidified atmosphere with 5% CO2 at 37 °C. The panel cell lines were inoculated in parallel onto a series of standard 96-well microtiter plates on day 0, at 1 × 10^4 to 3 × 10^4 cells/mL, depending on the doubling time of a specific cell line. Test compounds were then added in five 10-fold dilutions (10^−8 to 10^−4 M) alone or in combination with 6-AN (c = 1 µM) and incubated for a further 72 hours. Working dilutions were freshly prepared on the day of the testing.
# (§3) After 72 hours of incubation, the cell growth rate was evaluated by performing the MTT assay. The absorbance was directly proportional to cell viability. Each test point was performed in quadruplicate in three individual experiments. The IC50 values were calculated from the dose–response curves using linear regression analysis. Each result is a mean value from at least two separate experiments.
# [5] = system: MCF-7 (breast adenocarcinoma); test: Cytotoxicity MTT assay, MCF-7; format: cell-based; details: Homo sapiens, read-out: IC50 MCF-7
# Description: as §2, §3
# [6] = design: method as in PMID 24360369; details: cited from earlier work
# [7] = erythrocytic stages, CQ-sensitive strain, three days of incubation, HRP2-ELISA
# [8] = erythrocytic stages, CQ-resistant strain, three days of incubation, HRP2-ELISA
SMILES,"IC50 [1, 7] [µM]","IC50 [2, 8] [µM]",IC50 [3] [µM],also measured
COc1cc(NC(C)CCCNC(=O)/C=C/C(=O)Nc2cccc(F)c2)c2ncccc2c1 (stereo not shown) [Compound 1],13.8,20,–,–
COc1cc(NC(C)CCCNC(=O)/C=C/C(=O)Nc2cccc(Cl)c2)c2ncccc2c1 (stereo not shown) [Compound 3],> 13,13.6,0.27 ± 0.06,–
COc1cc(NC(C)CCCNC(=O)/C=C/C(=O)Nc2ccc(C(F)(F)F)cc2)c2ncccc2c1 (stereo not shown) [Compound 6],13,18.4,0.11 ± 0.02,"IC50 ([4]; alone, 72 hours, MTT): ≥ 100 µM; IC50 ([5]; MCF7, alone, 72 hours, MTT): ≥ 100 µM"
"O=C(/C=C/C(=O)Nc1cccc(F)c1)NCCCCNc1ccnc2cc(Cl)ccc12 [Compound 11, (2E)-N’-{4-[(7-chloroquinolin-4-yl)amino]butyl}-N-(3-fluorophenyl)but-2-enediamide]",0.144,7.02,–,–
"O=C(/C=C/C(=O)Nc1ccc(F)cc1)NCCCCNc1ccnc2cc(Cl)ccc12 [Compound 12, (2E)-N’-{4-[(7-chloroquinolin-4-yl)amino]butyl}-N-(4-fluorophenyl)but-2-enediamide]",0.067,1.88,–,melting point: 239 °C (dec.)
"CCN(CC)CCCC(C)Nc1ccnc2cc(Cl)ccc12 (stereo not shown) [CQ, chloroquine]",–,–,–,IC50 [1]: 0.0037 µM; IC50 [2]: 0.241 µM
"NC(=O)c1ccc(N)nc1 [Compound 6-AN, 6-aminonicotinamide, reference compound]",–,–,–,"IC50 ([4]; 72 h): 10 ± 7 µM; IC50 ([5]; MCF7, 72 h): 2 ± 0.3 µM"
"COc1cc(C)c2c(Oc3cccc(C(F)(F)F)c3)c(OC)cc(NC(C)CCCN)c2n1 (stereo not shown) [TQ, Tafenoquine]",–,–,–,elimination half-life [6]: approximately 15 days
"COc1cc(NC(C)CCCN)c2ncccc2c1 (stereo not shown) [PQ, primaquine]",1.99,1.82,8.4 ± 3.4,–
"O=C(/C=C/C(=O)Nc1ccc(Cl)cc1)NCCCCNc1ccnc2cc(Cl)ccc12 [Compound 14, (2E)-N-(4-chlorophenyl)-N’-{4-[(7-chloroquinolin-4-yl)amino]butyl}but-2-enediamide]",0.035,0.89,–,melting point: 237 °C (dec.)
COc1cc(NC(C)CCCNC(=O)/C=C/C(=O)Nc2ccc(F)cc2)c2ncccc2c1 (stereo not shown) [Compound 2],7.74,> 13,–,–
COc1cc(NC(C)CCCNC(=O)/C=C/C(=O)Nc2cccc(C(F)(F)F)c2)c2ncccc2c1 (stereo not shown) [Compound 5],13.9,10.7,0.27 ± 0.08,"IC50 ([4]; alone, 72 hours, MTT): ≥ 100 µM; IC50 ([5]; MCF7, alone, 72 hours, MTT): ≥ 100 µM"
"O=C(/C=C/C(=O)Nc1ccc(C(F)(F)F)cc1)NCCCCNc1ccnc2cc(Cl)ccc12 [Compound 16, (2E)-N’-{4-[(7-chloroquinolin-4-yl)amino]butyl}-N-[4-(trifluoromethyl)phenyl]but-2-enediamide]",0.035,0.379,–,melting point: 270 °C (dec.)
"O=C(/C=C/C(=O)Nc1cccc(Cl)c1)NCCCCNc1ccnc2cc(Cl)ccc12 [Compound 13, (2E)-N-(3-chlorophenyl)-N’-{4-[(7-chloroquinolin-4-yl)amino]butyl}but-2-enediamide]",0.083,6.96,–,–
COc1cc(NC(C)CCCNC(=O)/C=C/C(=O)Nc2ccc(Cl)cc2)c2ncccc2c1 (stereo not shown) [Compound 4],> 13,> 13,0.39 ± 0.01,–
"O=C(/C=C/C(=O)Nc1cccc(C(F)(F)F)c1)NCCCCNc1ccnc2cc(Cl)ccc12 [Compound 15, (2E)-N’-{4-[(7-chloroquinolin-4-yl)amino]butyl}-N-[3-(trifluoromethyl)phenyl]but-2-enediamide]",0.194,3.22,–,–
